Data set [1] concerns primary cultures of RPE of adult pigs. The note with it: 24 h after exposure; Fontaine et al. (2016); cited from earlier work.
Data set [2] is described as follows: Pharmacokinetic study via oral administration in mice, plasma concentrations. The format is in vivo, mice C57BL/6. The procedure: (§1) The pharmacokinetic study of the chemical compounds (C) following the oral administration thereof was conducted using mice C57BL/6 (January, 53940 The Genest Saint Isle, France). The chemical compounds derived from norbixin (C) were administered at a dose of 50 mg/kg of body weight. After administration, the blood was sampled at the tail at t=0.25 h; 0.5 h; 1 h; 3 h; 6 h and 8 h. The blood samples were centrifuged and the plasmas taken. The dosage of the plasma samples made it possible to determine pharmacokinetic parameters, namely Cmax, which corresponds to the maximum concentration observed after the administration of the molecule, Tmax which is the time required to reach maximum concentration after administration of the molecule and the AUC: the area under the curve which corresponds to the plasma exposure (FIG. 2).
(§2) The LC-MSMS analysis is carried out with a HPLC 1200 Infinity chain (Agilent Technologies, Santa-Clara, United States), a UV detector and a mass spectrometer QQQ6420 (Agilent Technologies Santa-Clara, United States). The injection volume is 5 μL. The chemical compounds C are eluted on an inverse phase column C18 (2.1*50 mm, particles 3 μm; Ace-C18-Excel, AIT) with a gradient of acetonitrile and water (containing 0.1% formic acid) and a flow rate of 0.3 mL/min. The conditions of the gradient can change according to the chemical compound C analyzed. The UV detector analyzes at 460 nm and the mass spectrometer analyzed in Mode MRM—Positive.
(§3) Table 2 discloses the pharmacokinetic results of the chemical compounds C following the administration p.o. 50 mg/kg in D-α-Tocopheryl polyethylene glycol 1000 succinate (VitE-TPGS) 20% in a sodium bicarbonate buffer (0.1M).

The nature of data set [3]: Pharmacokinetic study via oral administration in mice, ocular concentrations. The data set is classed as in vivo, mice C57BL/6. The note with it: for Eye Exposure 50 mg/kg p.o. AUC: Table 3, repeats the eye exposure of Table 2; for Tmax: C57BL/6, mouse, eye, po. As for the experimental part:
as §1
In parallel, the ocular concentrations of the chemical compounds derived from norbixin (C) were dosed in the following way (FIG. 1): both eyes of each mouse were taken in Precellys tubes and stored at −80° C. until the time of dosing. The eyes are then ground in the Precellys tubes with a bench homogenizer, Fast-prep (Fischer Scientific, Hampton, United States) in a mixture of organic solvents, in a first step with 500 μL of chloroform/methanol (1/1, v/v) then 500 μL of chloroform/dichloromethane (1/1, v/v). The supernatants are recovered at each step and transferred to a 96-well plate of 2 mL.
For the quantification of the chemical compounds C, a calibration curve is carried out with 8 standards (5 to 5,000 ng/mL) in the same organic solvent mixtures and transferred (100 μL) to the 96-well plate of 2 mL.
The supernatants and standards are evaporated in a EZ2 (Genevac, Ipswich, United Kingdom), without heating, then taken with 100 μL of DMSO/methanol (20:80, v/v) before being transferred to a 96-well plate of 200 μL.
as §2, §3

The subject of data set [4] is primary cultures of RPE of adult pigs. The data set is described as follows: In vitro photoprotection of RPE cells illuminated with blue light in the presence of A2E. The format is cell-based, pig. The conditions noted are these: A2E 30 μM, survival 24 h after illumination; for viability at 5 µM / viability at 10 µM / viability at 20 µM: Sus scrofa, RPE. An excerpt:
In addition to better distribution in the target-tissue, selecting new compounds must also be based on good photo-protective activity that limits the loss of the cells of the RPE and thus reducing the retinal degeneration observed during the AMD and other degenerative diseases such as Retinitis pigmentosa and Stargardt's disease. At the cellular level, on cultures of cells the RPE coming from pig retina, Fontaine et al. (2016) have shown that a treatment with norbixin (BIO201) protects the cells of the RPE against apoptosis following an illumination in the presence of A2E (80% survival 24 h after exposure). This same screening test according to the percentage of photoprotection was used so as to determine its modulation by and the chemical compounds derived from norbixin (C) object of the present invention in comparison with the photo-protective effect of norbixin and characterize these modulations from a statical standpoint.
The test in vitro described hereinabove and intended to study the photo-protective effect of norbixin was used so as to quantify the photo-protective effects of the various chemical compounds derived from norbixin (C) on the cells of the RPE illuminated with blue light in the presence of A2E (FIG. 3). The photo-protective effect of the molecules was evaluated in a phototoxicity cellular model induced by treatment by A2E followed by an illumination with blue light. The term “blue radiation” means the radiation corresponding to the blue band of the visible light spectrum, i.e. of a wavelength comprised between 435 and 490 nm. This model uses primary cultures of RPE of adult pigs. The cell survival is quantified thanks to a test of cellular viability. At −48 h the compounds to be tested (in solution at 5 mM in the DMSO) are added to obtain the final concentrations of 1 to 20 μM) then at −19 h of the A2E (final concentration 30 μM) and the cells (time 0 h) are illuminated. 24 h after the survival of the cells is measured. The acquisition of images, as well as the processing thereof, are carried out using a fluorescence microscope controlled by the Metamorph software and a dedicated quantification program. The experiments are conducted on a 96-well microplate in quadruplicate and the experiment is reproduced at least four times. The results are expressed in the form of a ratio representing the number of living cells in the wells treated by the molecules to be tested, divided by the number of living cells in the controlled wells (treated by the dilution medium without A2E). This test made it possible hereinabove to reveal the photo-protective activity of norbixin (Fontaine et al. 2016).

The mark [5] stands for this setting: mice, p.o. 50 mg/kg in VitE-TPGS 20% in sodium bicarbonate buffer (0.1M).
Where [6] appears, read: mice, p.o. 50 mg/kg in VitE-TPGS 20% in sodium bicarbonate buffer (0.1M), area under the curve.
The mark [7] stands for this setting: C57BL/6, mouse, in vivo, po, 50 mg/kg.

Broadly, the Cmax is the highest concentration seen after dosing. By Tmax is commonly meant the time at which the peak concentration occurs. A word on the viability: it is a per cent measure of how many cells are alive, often set against a control.

With `CC(/C=C/C=C(C)/C=C/C(=O)O)=C\C=C\C=C(C)\C=C\C=C(C)\C=C\C(=O)O` [BIO201, 6,6′-diapocarotene-6,6′-dioate, reference compound], in data set [1], the “survival of RPE cells after illumination in the presence of A2E” value is listed as 80%. Further, in data set [2] (setting [5]), the “Plasma CMax” value turned out to be 34.99 µg/mL and the “Plasma TMax” value amounted to 15 min. In data set [2] (setting [6]), the “Plasma Exposure” value was found to be 100.7 µg·h/mL. The “Eye Exposure 50 mg/kg p.o. AUC” value in data set [3] is given as 22.4 ng · h/eye. In addition, in data set [3] (setting [5]), the “Eye CMax” value came out at 8.6 ng/eye and the “Eye TMax” value worked out at 30 min. The “Photoprotection (%) 5 μM Mean” value in data set [4] (5 μM compound) turned out to be 19.2%. The “Photoprotection (%) 10 μM Mean” value in data set [4] (10 μM compound) is 34.1%. In addition, the “Photoprotection (%) 20 μM Mean” value in data set [4] (20 μM compound) stood at 63.6%.
`CC(=C/C=C/C(C)=C/C=C/C=C(C)/C=C/C=C(C)/C=C/C(=O)N1C[C@@H](C)O[C@@H](C)C1)/C=C/C(=O)O` [C15]: in data set [2] (setting [7]), the concentration peaked (Cmax) at 17300 ng/mL, the “Plasma Exposure” value was 46.99 µg·h/mL and the Tmax turned out to be 30 min. In data set [3] (setting [5]), the Tmax came out at 30 min and the “Eye CMax” value came out at 22.8 ng/eye. Further, in data set [3], the “Eye Exposure 50 mg/kg p.o. AUC” value is listed as 108.5 ng · h/eye. For the same compound, the “Eye Exposure” value in data set [3] (setting [6]) was 108.5 ng · h/eye. The viability at 5 µM in data set [4] (5 μM compound) stood at 5.4%. For the same compound, the viability at 10 µM in data set [4] (10 μM compound) turned out to be 10%. Besides, the viability at 20 µM in data set [4] (20 μM compound) stood at 58.5%.
As to `CC(=C/C=C/C(C)=C/C=C/C=C(C)/C=C/C=C(C)/C=C/C(=O)N1CCSCC1)/C=C/C(=O)O` [C6], in data set [2] (setting [7]), the concentration peaked (Cmax) at 3950 ng/mL, the “Plasma Exposure” value is 10.81 µg·h/mL and the Tmax is 30 min. Further, in data set [3] (setting [5]), the Tmax stood at 30 min and the “Eye CMax” value stood at 3.9 ng/eye. Besides, in data set [3], the “Eye Exposure 50 mg/kg p.o. AUC” value is 23.1 ng · h/eye. Further, in data set [4] (10 μM compound), the viability at 10 µM was 60.6%. For the same compound, in data set [4] (20 μM compound), the viability at 20 µM is 19.1%.
As to `COC1CCN(C(=O)/C=C/C(C)=C/C=C/C(C)=C/C=C/C=C(C)/C=C/C=C(C)\C=C\C(=O)O)CC1` [C24, 1-[4-methoxypiperidinamido](2E,4E,6E,8E,10E,12E,14E,16Z,18E)-4,8,13,17-tetramethylicosa-2,4,6,8,10,12,14,16,18-nonaenedioate], in data set [2] (setting [7]), the Cmax worked out at 48300 ng/mL, the “Plasma Exposure” value came to 141.9 µg·h/mL and the Tmax came to 30 min. Further, in data set [3] (setting [5]), the Tmax worked out at 90 min and the “Eye CMax” value is given as 96 ng/eye. In addition, the “Eye Exposure 50 mg/kg p.o. AUC” value in data set [3] is 499.1 ng · h/eye. The viability at 5 µM in data set [4] (5 μM compound) was found to be 47%. The viability at 10 µM in data set [4] (10 μM compound) came to 69%. Moreover, in data set [4] (20 μM compound), the viability at 20 µM turned out to be 84%.
For the compound `CC(=C/C=C/C(C)=C/C=C/C=C(C)/C=C/C=C(C)/C=C/C(=O)N1CCC(O)C1)/C=C/C(=O)O` (stereo in doubt) [C11, 1-[(R)-3-hydroxypyrrolidinamido](2E,4E,6E,8E,10E,12E,14E,16Z,18E)-4,8,13,17-tetramethylicosa-2,4,6,8,10,12,14,16,18-nonaenedioate], in data set [2] (setting [7]), the Cmax stood at 35900 ng/mL, the “Plasma Exposure” value stood at 190 µg·h/mL and the Tmax came out at 60 min. In data set [3] (setting [5]), the Tmax was found to be 60 min and the “Eye CMax” value was determined as 47.7 ng/eye. Moreover, in data set [3], the “Eye Exposure 50 mg/kg p.o. AUC” value was 238.4 ng · h/eye. The viability at 5 µM in data set [4] (5 μM compound) is 21.1%. In addition, the viability at 10 µM in data set [4] (10 μM compound) was determined as 39.3%. For the same compound, the viability at 20 µM in data set [4] (20 μM compound) was 63.4%.
Regarding `CCOCC1CCN(C(=O)/C=C/C(C)=C/C=C/C(C)=C/C=C/C=C(C)/C=C/C=C(C)\C=C\C(=O)O)CC1` [C23, 1-[4-ethylmethoxypiperidinamido](2E,4E,6E,8E,10E,12E,14E,16Z,18E)-4,8,13,17-tetramethylicosa-2,4,6,8,10,12,14,16,18-nonaenedioate], in data set [2] (setting [7]), the Cmax was found to be 5010 ng/mL, the “Plasma Exposure” value is 24.1 µg·h/mL and the Tmax worked out at 60 min. Further, in data set [3] (setting [5]), the Tmax came out at 120 min and the “Eye CMax” value is reported as 11 ng/eye. Moreover, the “Eye Exposure 50 mg/kg p.o. AUC” value in data set [3] is given as 54.7 ng · h/eye. Moreover, the viability at 5 µM in data set [4] (5 μM compound) was 38.4%. Also, in data set [4] (10 μM compound), the viability at 10 µM was determined as 59.2%. Moreover, in data set [4] (20 μM compound), the viability at 20 µM turned out to be 73.1%.
Take `CC(=C/C=C/C(C)=C/C=C/C=C(C)/C=C/C=C(C)/C=C/C(=O)N[C@H]1CC[C@H](O)CC1)/C=C/C(=O)O` [C19, 1-[(E)-4-hydroxycyclohexamido](2E,4E,6E,8E,10E,12E,14E,16Z,18E)-4,8,13,17-tetramethylicosa-2,4,6,8,10,12,14,16,18-nonaenedioate]: in data set [2] (setting [7]), the highest level (Cmax) was 6620 ng/mL, the “Plasma Exposure” value is 22.8 µg·h/mL and the time of peak concentration (Tmax) worked out at 15 min. For the same compound, in data set [3] (setting [5]), the Tmax came out at 30 min and the “Eye CMax” value was found to be 5.7 ng/eye. In data set [3], the “Eye Exposure 50 mg/kg p.o. AUC” value was determined as 37.5 ng · h/eye. Moreover, the viability at 5 µM in data set [4] (5 μM compound) worked out at 60.6%. Besides, the viability at 10 µM in data set [4] (10 μM compound) turned out to be 60.6%. The viability at 20 µM in data set [4] (20 μM compound) is 79.9%.

These data come from patent publication US12215067B2, “Chemical compounds targeting the eye and use thereof in the treatment of eye diseases” (BIOPHYTIS, priority 2019, dated 2025).
